{"source": "patent US20110045033A1", "about": "“Combination of Itriglumide and Proton Pump Inhibitors in the Treatment of Gastrointestinal and Related Disorders” (priority 2005, published 2011)", "key": {"[1]": {"test_system": "acute reflux esophagitis in pylorus-ligated rats", "assay": "Acute reflux esophagitis in pylorus-ligated rats (macroscopic lesion index)", "type": "in vivo, rat", "parameters": "key to Average Score lesions: lesion index 0 = no lesion to 6 = hemorrhage >40 mm or perforation", "conditions": "for % Effect vs. control / Average Score lesions: 3 h after ligation; for ED50: Rattus norvegicus, intraduodenal, drug administered separately, intraduodenally, from dose-response regression line, read-out: ED50 (dose which reduces of 50% the esophagus lesions)", "description": "Male rats of 175-200 g body weight were fasted for 24 hours prior the experiment. Water was allowed ad libitum. Under ether anaesthesia, the abdomen was incised along the midline, and both pylorus and limiting ridge (transitional region between the forestomach and corpus) were simultaneously ligated. Consequently, the total capacity of the stomach to hold gastric juice was greatly diminished, resulting in reflux of gastric juice into the esophagus. Following ligation of pylorus and limiting ridge, the test compounds were given intraduodenally (5 ml/kg), and the abdomen was closed by suturing. After 3 hours, rats were killed by ether overdose and the gastroesophageal portion was excised. The lesion in the thoracic esophagus was scored macroscopically, using a lesion index according to the following criteria: no lesion as 0; oedema as 1; reddening as 2; the length of hemorrhagic area <20 mm as 3; the length of hemorrhagic area 20-30 mm as 4; the length of hemorrhagic area 30-40 mm as 5; the length of hemorrhagic area >40 mm or perforation as 6.\nThe doses of the tested compounds which reduce of 50% the esophagus lesions (ED50) were calculated from the dose-response regression line."}, "[2]": {"test_system": "chronic model of reflux esophagitis in rats", "assay": "Chronic acid reflux esophagitis in rat (forestomach ligation and pyloric stenosis)", "type": "in vivo", "conditions": "15 days; for Occurrence of Esophagitis: animals affected/surviving", "description": "The method was according to Omura N., et al. (Scand. J gastroenterol. 1999; 34:948-953) with slight modifications.\nMale Wistar rats, 10 weeks old, were kept in controlled animal room 1 week prior to use and fed with standard diet. A day before the experiment rats were deprived of food but allowed free access to water.\nThis model consists of gastric outlet obstruction obtained by ligation of forestomach and pyloric stenosis. Rats were operated under air/halothane anaesthesia; after opening the abdomen with a median incision, the transitional region between forestomach and the glandular portion was ligated and then the forestomach was blocked with other two ligations. Pyloric stenosis were obtained by wrapping a duodenum near the pylorus with a piece (about 2 mm) of a catheter (3.5 mm inner diameter) as a ring. The ring was closed by thermocautery and fixed to the pylorus with a nylon thread. The abdomen was closed by suturing.\nAfter the operation the rats (10 animals per group) were deprived of diet for 48 h but had free access to water.\nDrugs were administered once a day, starting on day zero, by subcutaneous injection. During the experiment body weight as well as the mortality were recorded.\nThe animals were killed 15 days later by overdose of ether inhalation. The abdomen was opened and the esophagus excised and placed on a cork plate. The presence and extension of esophagitis sites was evaluated by macroscopic observation. Each site of esophagitis was measured (mm of length×mm of width). Data were expressed as mm^2 of esophagitis area (mean area group)."}, "[3]": {"conditions": "Omeprazole 0.1 mg/kg intraduodenally"}, "[4]": {"conditions": "Omeprazole 0.3 mg/kg intraduodenally"}, "[5]": {"conditions": "Omeprazole 1.0 mg/kg intraduodenally"}, "[6]": {"conditions": "Omeprazole 3.0 mg/kg intraduodenally"}, "[7]": {"conditions": "Omeprazole 0.5 mg/kg s.c. once a day"}, "[8]": {"conditions": "Omeprazole 1 mg/kg s.c. once a day"}, "[9]": {"conditions": "Omeprazole 2 mg/kg s.c. once a day"}, "[10]": {"conditions": "Itriglumide 2.5 mg/kg intraduodenally"}, "[11]": {"conditions": "Itriglumide 5.0 mg/kg intraduodenally"}, "[12]": {"conditions": "Itriglumide 10 mg/kg intraduodenally"}, "[13]": {"conditions": "Itriglumide 20 mg/kg intraduodenally"}, "[14]": {"conditions": "Itriglumide 10 mg/kg s.c. once a day"}}}
{"compound": "COc1ccc2[nH]c([S+]([O-])Cc3ncc(C)c(OC)c3C)nc2c1", "note": "(centres unmarked) [Omeprazole]", "values": [{"measurement": "% Effect vs. control", "setting": "[1]; [3]", "result": 3.4, "unit": "%"}, {"measurement": "Average Score lesions", "setting": "[1]; [3]", "result": 5.6}, {"measurement": "% Effect vs. control", "setting": "[1]; [4]", "result": 0, "unit": "%"}, {"measurement": "Average Score lesions", "setting": "[1]; [4]", "result": 5.8}, {"measurement": "% Effect vs. control", "setting": "[1]; [5]", "result": 17.2, "unit": "%"}, {"measurement": "Average Score lesions", "setting": "[1]; [5]", "result": 4.8}, {"measurement": "% Effect vs. control", "setting": "[1]; [6]", "result": 53.4, "unit": "%"}, {"measurement": "Average Score lesions", "setting": "[1]; [6]", "result": 2.7}, {"measurement": "ED50", "setting": "[1]", "result": 4.9, "unit": "mg/kg"}, {"measurement": "% Protection vs. control", "setting": "[2]; [7]", "result": 17.5, "unit": "%"}, {"measurement": "Survival Rate (%)", "setting": "[2]; [7]", "result": 80, "unit": "%"}, {"measurement": "Total average size of ulcers (mm^2)", "setting": "[2]; [7]", "result": 47, "unit": "mm^2"}, {"measurement": "Occurrence of Esophagitis", "setting": "[2]; [7]", "result": "6/8"}, {"measurement": "% Protection vs. control", "setting": "[2]; [8]", "result": 28.0, "unit": "%"}, {"measurement": "Survival Rate (%)", "setting": "[2]; [8]", "result": 90, "unit": "%"}, {"measurement": "Total average size of ulcers (mm^2)", "setting": "[2]; [8]", "result": 41, "unit": "mm^2"}, {"measurement": "Occurrence of Esophagitis", "setting": "[2]; [8]", "result": "6/9"}, {"measurement": "% Protection vs. control", "setting": "[2]; [9]", "result": 49.1, "unit": "%"}, {"measurement": "Survival Rate (%)", "setting": "[2]; [9]", "result": 90, "unit": "%"}, {"measurement": "Total average size of ulcers (mm^2)", "setting": "[2]; [9]", "result": 29, "unit": "mm^2"}, {"measurement": "Occurrence of Esophagitis", "setting": "[2]; [9]", "result": "3/9"}, {"measurement": "ED50", "setting": "[2]; Rattus norvegicus, sc, 360 h, Omeprazole alone, s.c. once a day", "result": 2.2, "unit": "mg/kg"}]}
{"compound": "Cc1cc(C)c(NC(=O)C[C@H](CC(=O)O)c2cccc3ccccc23)c(C(=O)N2CCC3(CCCC3)CC2)c1", "note": "[Itriglumide, (R)-1-napthalenepropanoic acid-β[2[(2-(8-azaspiro[4.5.]dec-8-ylcarbonyl)4,6-dimethylphenyl]amino]-2-oxoethyl]]", "values": [{"measurement": "% Effect vs. control", "setting": "[1]; [10]", "result": 0, "unit": "%"}, {"measurement": "Average Score lesions", "setting": "[1]; [10]", "result": 5.2}, {"measurement": "% Effect vs. control", "setting": "[1]; [11]", "result": 27.5, "unit": "%"}, {"measurement": "Average Score lesions", "setting": "[1]; [11]", "result": 3.7}, {"measurement": "% Effect vs. control", "setting": "[1]; [12]", "result": 51.0, "unit": "%"}, {"measurement": "Average Score lesions", "setting": "[1]; [12]", "result": 2.5}, {"measurement": "% Effect vs. control", "setting": "[1]; [13]", "result": 82.3, "unit": "%"}, {"measurement": "Average Score lesions", "setting": "[1]; [13]", "result": 0.9}, {"measurement": "ED50", "setting": "[1]", "result": 9.1, "unit": "mg/kg"}, {"measurement": "% Protection vs. control", "setting": "[2]; [14]", "result": 42.1, "unit": "%"}, {"measurement": "Survival Rate (%)", "setting": "[2]; [14]", "result": 90, "unit": "%"}, {"measurement": "Total average size of ulcers (mm^2)", "setting": "[2]; [14]", "result": 33, "unit": "mm^2"}, {"measurement": "Occurrence of Esophagitis", "setting": "[2]; [14]", "result": "4/9"}]}
